Measurements published in BindingDB's records for doi:10.1021/jm9911229 (University of Ferrara, 2000).
Where a name gives a salt, the structure may show the parent alone.

Assay: Tested for 50% inhibition of generation of Human Ha-ras polymerase chain reaction(PCR) products

| Compound | IC50 [µM] |
| --- | --- |
| Cn1cc(NC(=O)c2cc(NC(=O)c3cc(NC(=O)c4cc5cc(N(CCCl)CCCl)ccc5n4C)cn3C)cn2C)cc1C(=O)NCCC(=N)N [5-[Bis-(2-chloro-ethyl)-amino]-1-methyl-1H-indole-2-carboxylic acid (5-{5-[5-(2-carbamimidoyl-ethylcarbamoyl)-1-methyl-1H-pyrrol-3-ylcarbamoyl]-1-methyl-1H-pyrrol-3-ylcarbamoyl}-1-methyl-1H-pyrrol-3-yl)-amide; hydrochloride] | 0.02 |
| Cn1cc(NC(=O)c2cc(NC(=O)c3cc(NC(=O)c4cc5cc(N(CCCl)CCCl)ccc5[nH]4)cn3C)cn2C)cc1C(=O)NCCC(=N)N [5-[Bis-(2-chloro-ethyl)-amino]-1H-indole-2-carboxylic acid (5-{5-[5-(2-carbamimidoyl-ethylcarbamoyl)-1-methyl-1H-pyrrol-3-ylcarbamoyl]-1-methyl-1H-pyrrol-3-ylcarbamoyl}-1-methyl-1H-pyrrol-3-yl)-amide; hydrochloride] | 0.02 |
| Cn1cc(NC(=O)c2cc(NC(=O)c3cc(NC(=O)c4cc5cc(N(CCCl)CCCl)ccc5o4)cn3C)cn2C)cc1C(=O)NCCC(=N)N [5-[Bis-(2-chloro-ethyl)-amino]-benzofuran-2-carboxylic acid (5-{5-[5-(2-carbamimidoyl-ethylcarbamoyl)-1-methyl-1H-pyrrol-3-ylcarbamoyl]-1-methyl-1H-pyrrol-3-ylcarbamoyl}-1-methyl-1H-pyrrol-3-yl)-amide; hydrochloride] | 0.015 |
| Cn1cc(NC(=O)c2cc(NC(=O)c3cc(NC(=O)c4cc5cc(NC(=O)c6ccc(N(CCCl)CCCl)cc6)ccc5n4C)cn3C)cn2C)cc1C(=O)NCCC(=N)N [5-{4-[Bis-(2-chloro-ethyl)-amino]-benzoylamino}-1-methyl-1H-indole-2-carboxylic acid (5-{5-[5-(2-carbamimidoyl-ethylcarbamoyl)-1-methyl-1H-pyrrol-3-ylcarbamoyl]-1-methyl-1H-pyrrol-3-ylcarbamoyl}-1-methyl-1H-pyrrol-3-yl)-amide; hydrochloride] | 0.015 |
| Cn1cc(NC(=O)c2cc(NC(=O)c3cc(NC(=O)c4nc5ccc(NC(=O)c6ccc(N(CCCl)CCCl)cc6)cc5[nH]4)cn3C)cn2C)cc1C(=O)NCCC(=N)N [5-{4-[Bis-(2-chloro-ethyl)-amino]-benzoylamino}-1H-benzoimidazole-2-carboxylic acid (5-{5-[5-(2-carbamimidoyl-ethylcarbamoyl)-1-methyl-1H-pyrrol-3-ylcarbamoyl]-1-methyl-1H-pyrrol-3-ylcarbamoyl}-1-methyl-1H-pyrrol-3-yl)-amide; hydrochloride] | 0.015 |
| Cn1cc(NC(=O)c2cc(NC(=O)c3cc(NC(=O)c4cc5cc(NC(=O)c6ccc(N(CCCl)CCCl)cc6)ccc5[nH]4)cn3C)cn2C)cc1C(=O)NCCC(=N)N [5-{4-[Bis-(2-chloro-ethyl)-amino]-benzoylamino}-1H-indole-2-carboxylic acid (5-{5-[5-(2-carbamimidoyl-ethylcarbamoyl)-1-methyl-1H-pyrrol-3-ylcarbamoyl]-1-methyl-1H-pyrrol-3-ylcarbamoyl}-1-methyl-1H-pyrrol-3-yl)-amide; hydrochloride] | 0.015 |
| Cn1cc(NC(=O)c2cc(NC(=O)c3cc(NC(=O)c4cc5cc(NC(=O)c6ccc(N(CCCl)CCCl)cc6)ccc5o4)cn3C)cn2C)cc1C(=O)NCCC(=N)N [5-{4-[Bis-(2-chloro-ethyl)-amino]-benzoylamino}-benzofuran-2-carboxylic acid (5-{5-[5-(2-carbamimidoyl-ethylcarbamoyl)-1-methyl-1H-pyrrol-3-ylcarbamoyl]-1-methyl-1H-pyrrol-3-ylcarbamoyl}-1-methyl-1H-pyrrol-3-yl)-amide; hydrochloride] | 0.015 |
